Data: patent US10807944B2, “HDAC inhibitor compounds and methods of treatment” (priority 2014, dated 2020)
Read-outs that look alike come from different tables or passages of the source.

Key:
HCT116 and A549 cells = assay: Acetylation of non-histone proteins by Western blotting; assay type: cell-based; settings: HCT116 and A549, 1 h; TSA 0.2 μM, UF010 2 μM
HCT116 cells = assay: Histone acetylation by Western blotting; assay type: cell-based
HDAC1 = HDAC1 (Homo sapiens (Human), UniProt Q13547); assay: HDAC1 in vitro inhibition, dose response; assay type: biochemical; settings: Table 2; read-out: HDAC 1 IC50
HDAC3 = HDAC3 (Homo sapiens (Human), UniProt O15379); assay: HDAC3 in vitro inhibition, dose response; assay type: biochemical; settings: Table 2; read-out: HDAC 3 IC50
HDAC2 = HDAC2 (Homo sapiens (Human), UniProt Q92769); assay: HDAC2 in vitro inhibition, dose response; assay type: biochemical; settings: Table 2; read-out: HDAC 2 IC50
HDAC6 = HDAC6 (Homo sapiens (Human), UniProt Q9UBN7); assay: HDAC6 in vitro inhibition, dose response; assay type: biochemical; settings: Table 2; read-out: HDAC 6 IC50
HDAC8 = HDAC8 (Homo sapiens (Human), UniProt Q9BY41); assay: HDAC8 in vitro inhibition, dose response; assay type: biochemical; settings: Table 2; read-out: HDAC 8 IC50
HepG2 cells [1] = tested on: HepG2 cells
HepG2 cells [2] = assay: cells; settings: Homo sapiens

Chain of HDAC3 (O15379 whole entry): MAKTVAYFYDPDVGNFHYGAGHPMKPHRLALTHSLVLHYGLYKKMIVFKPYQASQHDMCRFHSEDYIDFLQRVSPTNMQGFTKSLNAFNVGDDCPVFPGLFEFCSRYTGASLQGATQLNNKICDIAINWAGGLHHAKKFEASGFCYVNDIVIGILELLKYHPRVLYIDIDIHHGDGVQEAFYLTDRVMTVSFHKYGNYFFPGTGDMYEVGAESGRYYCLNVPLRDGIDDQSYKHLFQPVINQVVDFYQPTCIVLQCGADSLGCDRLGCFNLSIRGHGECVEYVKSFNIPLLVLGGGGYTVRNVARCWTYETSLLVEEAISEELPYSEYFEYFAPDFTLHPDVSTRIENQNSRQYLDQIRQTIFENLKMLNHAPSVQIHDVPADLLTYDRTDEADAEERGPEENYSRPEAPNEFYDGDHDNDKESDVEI
Chain of HDAC3 (Q9Y618 395-489 partner): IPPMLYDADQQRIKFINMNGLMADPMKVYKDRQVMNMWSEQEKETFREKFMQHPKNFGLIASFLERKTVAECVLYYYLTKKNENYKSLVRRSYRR
Chain of HDAC2 (Q92769 whole entry): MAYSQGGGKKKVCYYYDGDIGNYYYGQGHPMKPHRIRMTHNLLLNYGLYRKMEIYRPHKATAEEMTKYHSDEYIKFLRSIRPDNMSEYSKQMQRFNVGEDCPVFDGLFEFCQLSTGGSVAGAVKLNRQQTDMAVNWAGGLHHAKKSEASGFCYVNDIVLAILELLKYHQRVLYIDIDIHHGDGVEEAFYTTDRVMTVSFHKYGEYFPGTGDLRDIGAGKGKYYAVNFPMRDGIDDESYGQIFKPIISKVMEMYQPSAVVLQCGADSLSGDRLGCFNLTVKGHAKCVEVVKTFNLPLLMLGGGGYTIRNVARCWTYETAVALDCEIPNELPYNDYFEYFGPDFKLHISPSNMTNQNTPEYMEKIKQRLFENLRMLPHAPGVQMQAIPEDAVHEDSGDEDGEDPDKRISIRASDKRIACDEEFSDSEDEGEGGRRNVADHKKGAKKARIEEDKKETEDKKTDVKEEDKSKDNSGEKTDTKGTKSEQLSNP
Chain of HDAC1 (Q13547 whole entry): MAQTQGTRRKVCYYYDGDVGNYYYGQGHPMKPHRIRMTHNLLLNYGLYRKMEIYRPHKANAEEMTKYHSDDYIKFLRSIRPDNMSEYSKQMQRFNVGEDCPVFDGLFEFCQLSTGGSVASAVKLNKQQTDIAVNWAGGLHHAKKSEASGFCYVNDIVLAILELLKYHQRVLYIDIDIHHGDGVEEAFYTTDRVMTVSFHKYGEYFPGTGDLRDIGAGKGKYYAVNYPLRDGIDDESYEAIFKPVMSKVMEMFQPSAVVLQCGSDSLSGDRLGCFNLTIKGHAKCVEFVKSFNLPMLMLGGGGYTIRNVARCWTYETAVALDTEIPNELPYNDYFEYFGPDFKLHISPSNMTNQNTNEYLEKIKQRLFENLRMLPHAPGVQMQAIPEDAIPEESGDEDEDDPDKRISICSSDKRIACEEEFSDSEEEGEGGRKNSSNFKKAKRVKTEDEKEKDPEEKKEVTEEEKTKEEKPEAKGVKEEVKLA
Chain of HDAC8 (Q9BY41 whole entry): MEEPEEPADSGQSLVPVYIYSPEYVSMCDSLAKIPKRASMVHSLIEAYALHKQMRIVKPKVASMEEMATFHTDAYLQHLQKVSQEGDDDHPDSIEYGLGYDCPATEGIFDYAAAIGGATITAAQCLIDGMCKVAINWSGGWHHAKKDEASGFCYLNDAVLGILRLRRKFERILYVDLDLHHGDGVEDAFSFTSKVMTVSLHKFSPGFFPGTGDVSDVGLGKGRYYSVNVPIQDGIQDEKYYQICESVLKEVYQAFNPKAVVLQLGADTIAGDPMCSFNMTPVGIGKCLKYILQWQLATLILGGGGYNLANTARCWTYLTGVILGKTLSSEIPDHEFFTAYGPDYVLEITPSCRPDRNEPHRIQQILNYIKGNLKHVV
Chain of HDAC6 (Q9UBN7 whole entry): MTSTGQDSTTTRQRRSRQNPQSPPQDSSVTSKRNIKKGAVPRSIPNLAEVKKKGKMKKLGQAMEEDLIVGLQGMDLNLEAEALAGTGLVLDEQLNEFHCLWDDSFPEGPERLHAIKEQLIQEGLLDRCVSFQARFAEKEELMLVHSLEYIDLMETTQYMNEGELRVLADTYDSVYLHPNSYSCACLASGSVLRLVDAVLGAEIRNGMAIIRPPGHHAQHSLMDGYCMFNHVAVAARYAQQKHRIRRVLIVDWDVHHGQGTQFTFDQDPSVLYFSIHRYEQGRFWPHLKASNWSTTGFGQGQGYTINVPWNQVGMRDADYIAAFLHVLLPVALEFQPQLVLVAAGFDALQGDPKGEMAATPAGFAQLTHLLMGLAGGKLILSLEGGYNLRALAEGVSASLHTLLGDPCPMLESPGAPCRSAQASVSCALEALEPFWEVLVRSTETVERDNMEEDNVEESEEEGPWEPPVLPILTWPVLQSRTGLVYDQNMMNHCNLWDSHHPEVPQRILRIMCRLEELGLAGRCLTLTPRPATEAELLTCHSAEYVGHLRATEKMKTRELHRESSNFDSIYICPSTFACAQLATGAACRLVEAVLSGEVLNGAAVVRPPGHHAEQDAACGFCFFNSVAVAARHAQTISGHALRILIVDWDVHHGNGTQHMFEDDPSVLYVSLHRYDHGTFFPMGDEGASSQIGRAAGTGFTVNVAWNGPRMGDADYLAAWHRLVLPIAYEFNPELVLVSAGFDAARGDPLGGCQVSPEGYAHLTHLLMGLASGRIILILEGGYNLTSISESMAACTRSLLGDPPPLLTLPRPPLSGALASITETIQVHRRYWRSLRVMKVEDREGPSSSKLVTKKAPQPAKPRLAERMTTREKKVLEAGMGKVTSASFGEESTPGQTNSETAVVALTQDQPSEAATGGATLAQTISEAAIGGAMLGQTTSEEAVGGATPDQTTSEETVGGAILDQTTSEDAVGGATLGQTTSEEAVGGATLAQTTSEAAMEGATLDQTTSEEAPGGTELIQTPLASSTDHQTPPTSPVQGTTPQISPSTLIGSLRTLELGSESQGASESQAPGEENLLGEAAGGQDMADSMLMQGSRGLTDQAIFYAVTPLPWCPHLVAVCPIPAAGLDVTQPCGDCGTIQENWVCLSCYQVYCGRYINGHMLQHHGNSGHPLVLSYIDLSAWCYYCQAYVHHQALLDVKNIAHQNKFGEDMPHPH

| Compound | IC50 (HDAC1) [µM] | IC50 (HDAC3) [µM] | IC50 (HDAC2) [µM] | also measured |
| --- | --- | --- | --- | --- |
| CC(/C=C/C(=O)NO)=C\[C@@H](C)C(=O)c1ccc(N(C)C)cc1 [TSA, Trichostatin A, reference compound] | – | – | – | α-tubulin acetylation (HCT116 and A549 cells): dramatically increased; accumulation of acetylated histones (HCT116 cells; HCT116, 1 h exposure, TSA 0.2 μM, others 2 μM (FIG. 1A)): strongly induced acetylation at some sites but weakly at other sites |
| N′-butyl-3-fluorobenzohydrazide [RLS2-306] | 8.63 | 4.77 | 10.9 | – |
| CCCCNNC(=O)c1ccc(Cl)cc1 [RLS2-133, N′-butyl-4-chlorobenzohydrazide] | 3.75 | 0.95 | 5.82 | – |
| O=C(NNCCCC1CCCC1)c1ccc(Br)cc1 [RLS2-257, 4-bromo-N′-(3-cyclopentylpropyl)benzohydrazide] | > 50 | > 50 | > 50 | – |
| CCCCNNC(=O)c1cc2ccccc2cc1O [RLS2-210, N′-butyl-3-hydroxy-2-naphthohydrazide] | > 50 | > 50 | > 50 | – |
| CC(C)NNC(=O)c1ccccc1 [RLS2-185, N′-isopropylbenzohydrazide] | > 50 | > 50 | > 50 | – |
| CN(C)c1ccc(C(=O)NNCC2CCCC2)cc1 [RLS2-225, N′-(cyclopentylmethyl)-4-(dimethylamino)benzohydrazide] | 1.76 | 1.67 | 3.25 | – |
| O=C(NNCCCC1CCCC1)c1ccc2ccccc2c1 [RLS2-249, N′-(3-cyclopentylpropyl)-2-naphthohydrazide] | > 50 | > 50 | > 50 | – |
| CCCCNNC(=O)c1ccc(OC)cc1 [RLS2-126, N′-butyl-4-methoxybenzohydrazide] | 1.91 | 0.43 | 2.52 | – |
| CCCCNNC(=O)c1ccc(-c2cc(C)cc(F)c2)cc1 [SR-4372, N′-butyl-3′-fluoro-5′-methylbiphenyl-4-carbohydrazide] | 0.76 | 0.38 | 1.2 | IC50 (HDAC6): 3.7 µM; IC50 (HDAC8): 3.6 µM |
| O=C(NNCC1CCCC1)c1ccc(Br)cc1 [RLS2-256, 4-bromo-N′-(cyclopentylmethyl)benzohydrazide] | 8.81 | 6.98 | 28.4 | – |
| CCCNNC(=O)c1ccc2ccccc2c1 [RLS2-255, N′-propyl-2-naphthohydrazide] | 3.5 | 1.65 | 6.68 | – |
| CCCCCCNNC(=O)c1ccc(C(C)(C)C)cc1 [RLS2-283, 4-tert-butyl-N′-hexylbenzohydrazide] | 2.25 | 8.08 | 2.82 | – |
| O=C(NNCCc1ccccc1)c1ccc(Br)cc1 [RLS2-138, 4-bromo-N′-phenethylbenzohydrazide] | > 50 | > 50 | > 50 | – |
| CCCCNNC(=O)c1ccc(-c2cncnc2)cc1 [SR-4369, N′-butyl-4-(pyrimidin-5-yl)benzohydrazide] | 1.24 | 2.29 | 7.27 | – |
| O=C(NNCCC1CCCC1)c1ccc(Br)cc1 [RLS2-219, 4-bromo-N′-(2-cyclopentylethyl)benzohydrazide] | 7.4 | 1.08 | 7.65 | – |
| CCCCNNC(=O)c1ccccc1-c1ccccc1 [RLS3-4, N′-butylbiphenyl-2-carbohydrazide] | > 50 | > 50 | > 50 | – |
| CCCCNNC(=O)c1ccc(N(C)C)cc1 [RLS2-131, N′-butyl-4-(dimethylamino)benzohydrazide] | 0.23 | 0.12 | 0.88 | IC50 (HDAC6): > 50 µM; potency against HepG2 relative to UF010 (HepG2 cells [1]; HepG2): 3 fold; IC50 (HDAC8): 13.1 µM; inhibition of cellular HDACs (H4K5ac, H3K18ac) (HCT116 cells; HCT116, 0.5 μM, 24 h (FIG. 1B)): potent inhibition of cellular HDACs; IC50 (HepG2 cells [2]; HepG2, read-out: IC50 Control): 1.5 µM; IC50 (HepG2 cells [2]; HepG2, read-out: IC50 HDAC1 shRNA): 1.8 µM; IC50 (HepG2 cells [2]; HepG2, read-out: IC50 HDAC2 shRNA): 2 µM; IC50 (HepG2 cells [2]; HepG2, read-out: IC50 HDAC3 shRNA): 0.2 µM |
| CCCCNNC(=O)c1ccccc1 [RLS2-125, N′-butylbenzohydrazide] | > 50 | > 50 | > 50 | growth inhibition for HepG2 (HepG2 cells [1]; HepG2, 96 h): little to no growth inhibition |
| CCCCNNC(=O)c1ccc(-c2ccccc2)cc1 [RLS3-43, N′-butylbiphenyl-4-carbohydrazide] | 0.09 | – | 0.8 | IC50 (HDAC8): 2.43 µM |
| CCCCCCNNC(=O)c1ccc(Br)cc1 [RLS2-284, 4-bromo-N′-hexylbenzohydrazide] | 10.3 | 20 | 16.1 | – |
| CCCCNNC(=O)c1ccc(F)cc1 [RLS2-123, N′-butyl-4-fluorobenzohydrazide] | 13.2 | 1.78 | 15.1 | – |
